Results on one compound are retold here after US20210177952A1, “METHOD AND COMPOSITION FOR STIMULATING IMMUNE RESPONSE” (BeyondSpring Pharmaceuticals, Inc., priority 2018, published 2021).

Data set [1] deals with CD4^+ T cells combined with CD14^+ dendritic cells. Kind of data set: Allogeneic mixed lymphocyte reaction (MLR), IL-2 and IFN-γ by ELISA. Format: cell-based, Human. The method, then: Human peripheral CD14 positive monocytes were collected from a human donor and, subsequently, differentiated and matured into CD14^+ dendritic cells (DCs). Human CD4 positive T-cells were separately collected from another human donor. The collected CD4^+ T cells were combined with the CD14^+ DCs in a mixed lymphocyte reaction (MLR). In this Example, a tubulin binding agent was added, respectively, in the step of monocyte differentiation, in the step of dendritic cell maturation, and in the step of T-cell activation by combining the CD14^+ DCs with the CD4^+ T cells.
ISOLATION OF HUMAN CD4^+ T CELLS FROM ANOTHER DONOR'S PBMCs: PBMC cells were obtained from another human donor according to (1a)-(1d) above. CD4^+ T-cells were then isolated from these PBMCs according to steps (3a)-(3k) as follows: (3a) The number of the PBMC cells was determined. (3b) The cell suspension was centrifuged at 300×g for 10 min. The supernatant was then completely aspirated. (3c) The cell pellet was re-suspended in 40 μL of FACS buffer per 10^7 total cells. (3d) 10 μL of CD4^+ T Cell Biotin-Antibody Cocktail was added per 10^7 total cells. (3e) The mixture was well mixed and incubated for 5 min in refrigerator (at 2-8° C.). (3f) 30 μL of FACS buffer was added per 10^7 total cells, and 20 μL of CD4^+ T-Cell MicroBead Cocktail was added per 10^7 total cells. (3g) The mixture was well mixed and incubated for 10 min in refrigerator (at 2 to 8° C.). (3h) A column is placed in magnetic field of a suitable MACS Separator. (3i) The column is prepared by rinsing with 3 mL of buffer. (3j) The cell suspension was applied onto the column. The flow-through containing unlabeled cells, representing the enriched CD4^+ T cells, were collected. […]
ALLOGENEIC ACTIVATION OF T CELLS ASSESSED BY MLR ASSAY: Allogeneic Mixed Lymphocyte Reaction (MLR) assays were performed according to steps (4a)-(4d) as follows: (4a) The test article (e.g., plinabulin and other tubulin binding agents) were each diluted in RPMI 1640 medium according to one of Tables 7-9 and, subsequently, added at 50 μL/well in appropriate wells. […]
In general terms: In an ELISA, binding on a coated surface is turned into a signal by an enzyme label.

For data set [2] the following is noted: mice; cited from earlier work.

Each structure is given as a SMILES string.

In the case of `CC(C)(C)c1[nH]cnc1/C=c1\[nH]c(=O)/c(=C/c2ccccc2)[nH]c1=O` [Plinabulin, (3Z,6Z)-3-Benzylidene-6-{[5-(2-methyl-2-propanyl)-1H-imidazol-4-yl]methylene}-2,5-piperazinedione], the “IL2 secretion in MLR” value is “decrease in IL2 secretion” in data set [1] (CD14^+ monocytes treated at 1 or 3 μM during DC differentiation) and “increase in IL2 secretion” in data set [1] (DCs treated at 1 or 3 μM during DC maturation). For the same compound, in data set [1] (treatment at ≥100 nM began when mature DCs were combined with CD4 T-cells, compared with nivolumab at 2 mg/ml), the “MLR induced IL-2 secretion” value is listed as “significant increase in MLR induced IL-2 secretion, greater than that of nivolumab”. The plasma elimination half-life in data set [2] is 1.5 to 2 h.
